The source made the active and inactive calls. The rule behind the calls is not given here.
Assays:
Mus musculus = species on record: Mus musculus; assay: Inhibition of ACK1/GCK in mouse BA/F3 cells assessed as reduction in NRAS-G12D mutant-mediated cell proliferation after 72 hrs by celltiter-glo assay; assay type: cell-based
Activated CDC42 kinase 1 = Activated CDC42 kinase 1 (Homo sapiens, UniProt Q07912); assay: Inhibition of ACK1 (unknown origin) by radiometric biochemical kinase assay
[1] = target: T1, Mitogen-activated protein kinase kinase kinase kinase 2 (Homo sapiens, UniProt Q12851); assay: Inhibition of GCK (unknown origin) by radiometric biochemical kinase assay
T1 sequence (Q12851 whole entry): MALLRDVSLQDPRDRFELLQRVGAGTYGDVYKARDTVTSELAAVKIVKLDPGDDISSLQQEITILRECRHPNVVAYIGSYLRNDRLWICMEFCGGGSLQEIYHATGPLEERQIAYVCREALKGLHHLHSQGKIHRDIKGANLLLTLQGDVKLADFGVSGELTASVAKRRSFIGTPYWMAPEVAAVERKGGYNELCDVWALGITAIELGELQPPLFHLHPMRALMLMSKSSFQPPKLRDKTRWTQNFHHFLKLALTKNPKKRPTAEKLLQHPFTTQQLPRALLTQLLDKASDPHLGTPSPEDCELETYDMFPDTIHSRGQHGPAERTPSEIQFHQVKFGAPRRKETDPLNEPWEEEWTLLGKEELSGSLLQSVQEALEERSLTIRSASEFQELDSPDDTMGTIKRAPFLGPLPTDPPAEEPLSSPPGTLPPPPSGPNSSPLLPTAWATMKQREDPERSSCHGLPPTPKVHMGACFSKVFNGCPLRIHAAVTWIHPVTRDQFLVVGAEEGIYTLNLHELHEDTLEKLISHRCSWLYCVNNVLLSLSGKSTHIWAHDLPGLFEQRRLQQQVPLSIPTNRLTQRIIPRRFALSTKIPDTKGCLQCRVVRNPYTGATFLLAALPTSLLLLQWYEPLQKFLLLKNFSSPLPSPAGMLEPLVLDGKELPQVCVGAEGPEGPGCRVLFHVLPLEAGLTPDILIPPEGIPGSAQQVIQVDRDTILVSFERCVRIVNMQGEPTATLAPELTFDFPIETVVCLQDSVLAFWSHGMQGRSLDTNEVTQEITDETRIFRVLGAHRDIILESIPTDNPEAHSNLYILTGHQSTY

[2] = Growth inhibition of parental mouse BA/F3 cells after 72 hrs by celltiter-glo assay; assay type: cell-based, BaF3
OCI-AML-3 [3] = assay: Growth inhibition of ACK1/GCK knockdown human OCI-AML3 cells harboring NRAS-Q61L mutant at 0.2 uM after 72 hrs by celltiter-glo assay; assay type: functional, cell-based
[4] = Growth inhibition of parental human U937 cells after 72 hrs by celltiter-glo assay; assay type: cell-based, U-937
OCI-AML-3 [5] = assay: Growth inhibition of human OCI-AML3 cells harboring NRAS-Q61L mutant after 72 hrs by celltiter-glo assay; assay type: functional; conditions: OCI-AML-3, 72 h
[6] = Metabolic stability in human liver microsomes assessed as compound remaining at 1 uM after 30 mins; assay type: ADME, microsome; conditions: read-out: Stability
CYP3A4 = CYP3A4 (Homo sapiens, UniProt P08684); assay: Inhibition of CYP3A4 (unknown origin) assessed as activity remaining at 10 uM relative to control; assay type: ADME; conditions: read-out: Activity
Sequence of CYP3A4 (P08684 whole entry): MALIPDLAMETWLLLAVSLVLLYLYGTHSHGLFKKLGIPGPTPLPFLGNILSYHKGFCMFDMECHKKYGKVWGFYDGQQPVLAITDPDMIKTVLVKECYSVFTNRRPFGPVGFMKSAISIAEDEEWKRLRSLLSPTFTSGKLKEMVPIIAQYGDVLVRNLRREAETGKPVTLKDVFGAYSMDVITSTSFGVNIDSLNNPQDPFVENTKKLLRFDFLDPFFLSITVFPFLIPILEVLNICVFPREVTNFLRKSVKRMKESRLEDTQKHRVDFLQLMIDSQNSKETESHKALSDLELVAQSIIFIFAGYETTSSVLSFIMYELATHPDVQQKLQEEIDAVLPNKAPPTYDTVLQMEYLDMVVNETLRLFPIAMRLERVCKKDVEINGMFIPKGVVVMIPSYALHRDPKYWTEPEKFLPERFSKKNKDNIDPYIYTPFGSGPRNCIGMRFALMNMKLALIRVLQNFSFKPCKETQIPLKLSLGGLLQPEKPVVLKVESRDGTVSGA

CYP2C9 = CYP2C9 (Homo sapiens, UniProt P11712); assay: Inhibition of CYP2C9 (unknown origin) assessed as activity remaining at 10 uM relative to control; assay type: ADME; conditions: read-out: Activity
Sequence of CYP2C9 (P11712 whole entry): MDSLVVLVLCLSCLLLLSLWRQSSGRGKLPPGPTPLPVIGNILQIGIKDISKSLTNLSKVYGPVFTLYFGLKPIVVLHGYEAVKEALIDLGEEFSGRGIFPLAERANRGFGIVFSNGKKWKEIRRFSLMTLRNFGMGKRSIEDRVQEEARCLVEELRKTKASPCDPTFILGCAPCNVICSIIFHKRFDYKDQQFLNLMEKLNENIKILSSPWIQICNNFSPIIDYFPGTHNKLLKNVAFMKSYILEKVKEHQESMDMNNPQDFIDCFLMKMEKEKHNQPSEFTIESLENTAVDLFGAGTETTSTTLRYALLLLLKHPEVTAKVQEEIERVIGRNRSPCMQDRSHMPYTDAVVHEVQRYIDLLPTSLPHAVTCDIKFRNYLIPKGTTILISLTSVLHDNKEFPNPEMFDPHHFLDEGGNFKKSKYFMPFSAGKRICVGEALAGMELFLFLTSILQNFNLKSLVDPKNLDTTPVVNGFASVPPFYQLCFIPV

CYP2D6 = CYP2D6 (Homo sapiens, UniProt P10635); assay: Inhibition of CYP2D6 (unknown origin) assessed as activity remaining at 10 uM relative to control; assay type: ADME; conditions: read-out: Activity
Sequence of CYP2D6 (P10635 whole entry): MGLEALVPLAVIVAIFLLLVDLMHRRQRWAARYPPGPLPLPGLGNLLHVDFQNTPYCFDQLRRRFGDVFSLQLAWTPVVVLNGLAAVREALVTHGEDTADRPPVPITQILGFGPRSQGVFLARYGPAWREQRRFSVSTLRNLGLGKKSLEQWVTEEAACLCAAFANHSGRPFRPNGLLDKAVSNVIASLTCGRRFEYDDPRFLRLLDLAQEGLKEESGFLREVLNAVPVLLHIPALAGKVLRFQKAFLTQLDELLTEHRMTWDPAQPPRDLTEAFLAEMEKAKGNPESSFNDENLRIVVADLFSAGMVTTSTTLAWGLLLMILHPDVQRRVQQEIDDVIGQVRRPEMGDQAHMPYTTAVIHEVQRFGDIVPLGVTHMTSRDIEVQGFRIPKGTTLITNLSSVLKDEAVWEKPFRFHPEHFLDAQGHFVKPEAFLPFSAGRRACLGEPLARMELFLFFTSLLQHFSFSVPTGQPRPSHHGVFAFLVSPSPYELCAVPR

[7] = Metabolic stability in dog liver microsomes assessed as compound remaining at 1 uM after 30 mins; assay type: ADME, Canis lupus familiaris, microsome; conditions: read-out: Stability
[8] = Metabolic stability in rat liver microsomes assessed as compound remaining at 1 uM after 30 mins; assay type: ADME, microsome; conditions: read-out: Stability
OCI-AML-3 [9] = assay: Growth inhibition of ACK1/GCK knockdown human OCI-AML3 cells harboring NRAS-Q61L mutant at 0.05 uM after 72 hrs by celltiter-glo assay; assay type: functional, cell-based
[10] = Metabolic stability in mouse liver microsomes assessed as compound remaining at 1 uM after 30 mins; assay type: ADME, microsome; conditions: read-out: Stability
CYP1A2 = target: T2, CYP1A2 (Homo sapiens, UniProt P05177); assay: Inhibition of CYP1A2 (unknown origin) assessed as activity remaining at 10 uM relative to control; assay type: ADME; conditions: read-out: Activity
T2 sequence (P05177 whole entry): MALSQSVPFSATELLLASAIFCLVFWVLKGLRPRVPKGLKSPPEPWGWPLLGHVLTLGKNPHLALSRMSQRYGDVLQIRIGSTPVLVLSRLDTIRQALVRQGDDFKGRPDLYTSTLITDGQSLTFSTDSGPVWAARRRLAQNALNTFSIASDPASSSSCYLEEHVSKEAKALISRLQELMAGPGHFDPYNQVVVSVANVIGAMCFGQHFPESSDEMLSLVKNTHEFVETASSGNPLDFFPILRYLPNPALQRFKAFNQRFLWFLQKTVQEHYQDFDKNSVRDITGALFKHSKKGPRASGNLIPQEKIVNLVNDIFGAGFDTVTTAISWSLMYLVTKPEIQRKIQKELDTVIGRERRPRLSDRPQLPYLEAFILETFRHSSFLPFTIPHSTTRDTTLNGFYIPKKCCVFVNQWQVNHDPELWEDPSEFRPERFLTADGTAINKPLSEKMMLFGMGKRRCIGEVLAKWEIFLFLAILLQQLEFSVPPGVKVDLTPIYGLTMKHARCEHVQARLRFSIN

OCI-AML-3 [11] = assay: Growth inhibition of ACK1/GCK knockdown human OCI-AML3 cells harboring NRAS-Q61L mutant at 0.5 uM after 72 hrs by celltiter-glo assay; assay type: functional, cell-based

Sequence of Activated CDC42 kinase 1 (Q07912 whole entry): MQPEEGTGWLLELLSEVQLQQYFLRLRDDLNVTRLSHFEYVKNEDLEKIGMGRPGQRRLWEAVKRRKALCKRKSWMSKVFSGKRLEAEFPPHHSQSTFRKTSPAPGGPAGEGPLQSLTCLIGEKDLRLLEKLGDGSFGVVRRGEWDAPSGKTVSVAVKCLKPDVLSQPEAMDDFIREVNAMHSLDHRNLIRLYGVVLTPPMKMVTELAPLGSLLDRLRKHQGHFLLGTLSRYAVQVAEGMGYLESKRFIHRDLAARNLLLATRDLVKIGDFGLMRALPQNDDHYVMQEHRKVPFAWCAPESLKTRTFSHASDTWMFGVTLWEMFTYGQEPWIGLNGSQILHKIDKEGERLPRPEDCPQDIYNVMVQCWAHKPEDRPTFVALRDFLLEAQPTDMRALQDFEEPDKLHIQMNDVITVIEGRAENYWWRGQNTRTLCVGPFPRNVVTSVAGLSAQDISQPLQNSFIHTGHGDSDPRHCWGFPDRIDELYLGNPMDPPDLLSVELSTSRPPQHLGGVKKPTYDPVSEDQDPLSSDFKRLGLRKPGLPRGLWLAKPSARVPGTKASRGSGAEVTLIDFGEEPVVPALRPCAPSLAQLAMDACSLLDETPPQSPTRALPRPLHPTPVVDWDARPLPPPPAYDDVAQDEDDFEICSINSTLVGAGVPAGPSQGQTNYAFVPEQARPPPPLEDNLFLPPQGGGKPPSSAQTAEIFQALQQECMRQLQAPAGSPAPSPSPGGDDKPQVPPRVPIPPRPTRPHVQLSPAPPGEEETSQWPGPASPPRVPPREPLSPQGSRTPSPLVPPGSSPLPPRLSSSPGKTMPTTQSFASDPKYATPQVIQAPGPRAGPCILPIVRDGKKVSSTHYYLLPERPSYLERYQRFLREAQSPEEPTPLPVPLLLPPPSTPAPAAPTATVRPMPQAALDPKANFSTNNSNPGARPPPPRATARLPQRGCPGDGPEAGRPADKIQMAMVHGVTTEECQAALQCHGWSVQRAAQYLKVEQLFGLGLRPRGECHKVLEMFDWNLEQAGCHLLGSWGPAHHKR

SMILES	GI50 (Mus musculus)	IC50 (Activated CDC42 kinase 1)	IC50 [1]	GI50 at 72 h [2]	growth inhibition (GI) (OCI-AML-3 [3])	GI50 at 72 h [4]	GI50 (OCI-AML-3 [5])	remaining at 0.5 h, 1 µM [6]	activity at 10 µM (CYP3A4)	activity at 10 µM (CYP2C9)	activity at 10 µM (CYP2D6)	remaining at 0.5 h, 1 µM [7]	remaining at 0.5 h, 1 µM [8]	growth inhibition (GI) (OCI-AML-3 [9])	remaining at 0.5 h, 1 µM [10]	activity at 10 µM (CYP1A2)	growth inhibition (GI) (OCI-AML-3 [11])
Cc1ccc(Nc2ncc3c(n2)N(C)C(=O)N(c2cc(NC(=O)c4cc(N5CCC(O)CC5)cc(C(F)(F)F)c4)ccc2C)C3)cn1	118 nM	40 nM	72 nM	671 nM	Active	2180 nM	143 nM										
CCN1CCN(c2ccc(Nc3ncc4c(n3)N(C)C(=O)N(c3cc(NC(=O)c5cccc(C(F)(F)F)c5)ccc3C)C4)cn2)CC1	71 nM	28 nM	7 nM	264 nM		1410 nM	30 nM	29.8%	> 100%	23%	68%	21.4%	19.2%	Active	21.2%	89.7%	
Cc1ccc(Nc2ncc3c(n2)N(C)C(=O)N(c2cc(NC(=O)c4cc(N5CCOCC5)cc(C(F)(F)F)c4)ccc2C)C3)cn1	284 nM	26 nM	45 nM	1650 nM	Active	2800 nM	260 nM										
Cc1ccc(NC(=O)c2ccc(CN3CCC(N(C)C)C3)c(C(F)(F)F)c2)cc1N1Cc2cnc(Nc3cnn(C)c3)nc2N(C)C1=O (stereo not given)	68 nM	25 nM	8 nM	414 nM													
Cc1ccc(Nc2ncc3c(n2)N(C)C(=O)N(c2cc(NC(=O)c4ccc(N5CCN(C)CC5)c(C(F)(F)F)c4)ccc2C)C3)cn1	341 nM	28 nM	10 nM	685 nM													
Cc1ccc(NC(=O)c2cccc(C(F)(F)F)c2)cc1N1Cc2cnc(NCCO)nc2N(C)C1=O	290 nM	21 nM	33 nM	3290 nM		8530 nM	367 nM										Active
Cc1ccc(NC(=O)c2cccc(C(F)(F)F)c2)cc1N1Cc2cnc(NC3CC3)nc2N(C)C1=O	547 nM	35 nM	42 nM	5060 nM													
CCN1CCN(c2ccc(Nc3ncc4c(n3)N(C)C(=O)N(c3cc(NC(=O)c5cccc(C(F)(F)F)c5)ccc3C)C4)cc2)CC1	83 nM	20 nM	8 nM	559 nM		839 nM	40 nM	46.7%	> 100%	34.3%	79.8%	21.3%	19.7%	Active	20.9%	92.1%	
Cc1ccc(Nc2ncc3c(n2)N(C)C(=O)N(c2cc(NC(=O)c4ccc(CN5CCN(C)CC5)c(C(F)(F)F)c4)ccc2C)C3)cn1	316 nM	26 nM	5 nM	818 nM													
Cc1ccc(Nc2ncc3c(n2)N(C)C(=O)N(c2cc(NC(=O)c4ccccc4)ccc2C)C3)cn1	1470 nM	21 nM	1080 nM	2700 nM													
Cc1ccc(Nc2ncc3c(n2)N(C)C(=O)N(c2cc(NC(=O)c4cc(-n5cnc(C)c5)cc(C(F)(F)F)c4)ccc2C)C3)cn1	238 nM	53 nM	27 nM	> 5000 nM													
CC(=O)N1CCN(c2ccc(Nc3ncc4c(n3)N(C)C(=O)N(c3cc(NC(=O)c5ccc(CN6CCC(N(C)C)C6)c(C(F)(F)F)c5)ccc3C)C4)cn2)CC1 (stereo not given)	41 nM	25 nM	16 nM	187 nM													
CCN1CCN(C(=O)c2ccc(Nc3ncc4c(n3)N(C)C(=O)N(c3cc(NC(=O)c5ccc(CN6CCC(N(C)C)C6)c(C(F)(F)F)c5)ccc3C)C4)cn2)CC1 (stereo not given)	94 nM	21 nM	14 nM	704 nM													
Cc1cc(Nc2ncc3c(n2)N(C)C(=O)N(c2cc(NC(=O)c4ccc(CN5CCC(N(C)C)C5)c(C(F)(F)F)c4)ccc2C)C3)n(C)n1 (stereo not given)	123 nM	11 nM	17 nM	509 nM													
Cc1ccc(NC(=O)c2cccc(C(F)(F)F)c2)cc1N1Cc2cnc(NC3CCCCC3)nc2N(C)C1=O	2450 nM	60 nM	925 nM	5220 nM													
Cc1ccc(NC(=O)c2cccc(C(F)(F)F)c2)cc1N1Cc2cnc(Nc3cnn(C)c3)nc2N(C)C1=O	100 nM	20 nM	6 nM	352 nM		1120 nM	42 nM	78.8%	> 100%	42.9%	78.8%	71.3%	98.4%	Active	73.3%	88%	
Cc1ccc(NC(=O)c2cccc(C(F)(F)F)c2)cc1N1Cc2cnc(Nc3ccccc3)nc2N(C)C1=O	380 nM	37 nM	47 nM	1790 nM													

Source: ChEMBL document CHEMBL4196175, “First SAR Study for Overriding NRAS Mutant Driven Acute Myeloid Leukemia” (J Med Chem, 2018)
